The record followed here is publication PMC12677699, “Utilizing Proteolytic‐Resistant Nano‐Short Peptide Based on Naphthyl Tail‐Anchored to Combat Bacterial Infections” (Advanced Science, 2025).

The subject of one experiment is E. coli 078. It is filed as cell-based, Escherichia coli. Summed up:
(§1)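 MHB broth microdilution; inoculum 0.5–1 × 10⁶ CFU mL^−1 final, log phase. Peptide dilutions in 0.2% BSA, equal volumes with cells. 37 °C, 20–22 h. Read A492.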

The next experiment deals with E. coli 25922. It counts as cell-based, Escherichia coli. An outline of the steps: as §1
Another experiment relates to E. coli UB1005. It counts as cell-based, Escherichia coli. An outline of the steps:
as §1

The next experiment has as its system P. aeruginosa 27853. It is filed as cell-based, Pseudomonas aeruginosa. Summed up: as §1
The next experiment relates to P. aeruginosa PAO1. It counts as cell-based, Pseudomonas aeruginosa. Summed up:
as §1

Another experiment concerns S. pullorum C7913. It counts as cell-based. Summed up: as §1
The next experiment concerns S. typhimurium 14028. It is filed as cell-based, Salmonella typhimurium. An outline of the steps: as §1
In another experiment the test system is S. typhimurium 7731. It is filed as cell-based, Salmonella typhimurium. An outline of the steps: as §1
The test system of a further experiment is S. aureus 25923. It is filed as cell-based, Staphylococcus aureus. An outline of the steps:
as §1

For another experiment, the system named is S. aureus 29213. It counts as cell-based, Staphylococcus aureus. Summed up: as §1
A further experiment concerns S. epidermidis 12228. It counts as cell-based, Staphylococcus epidermidis. An outline of the steps:
as §1

In experiment [1] the test system is E. coli ATCC 25922. As to the kind of experiment: Serum tolerance assay (MIC after incubation with serum). It counts as cell-based, Escherichia coli. The settings on record: 4 h of incubation with various serum concentrations. The method, then:
The serum stability of nano‐short peptides was evaluated by incubating peptide solutions with fetal bovine serum (FBS), which was at concentrations of 25%, 50%, and 100% (diluted in 0.2% BSA solution). Following 4 h of incubation, the antimicrobial activity was determined by measuring the MIC against the test strains.

A short description of experiment [2]: LPS binding, BODIPY-TR-cadaverine displacement. The settings on record: BC displacement, polymyxin B 10 µg mL^−1 = 100%, n = 3. The protocol: (§2) The binding ability of nano‐short peptides to LPS and LTA was evaluated using a BODIPY‐TR‐cadaverine (BC) displacement assay.^[ [59] ^] Test solutions containing LPS or LTA (50 µg mL^−1) were pre‐incubated with BC dye (5 µg mL^−1) for 4 h in the dark. Peptide solutions at varying concentrations were then mixed with the LPS or LTA, polymyxin B (final concentration 10 µg mL^−1) was used as a positive control, and LPS or LTA mixed with dye solution was used as a negative control. The fluorescence intensity (excitation λ = 580 nm, emission λ = 620 nm) was measured. %ΔF (au) = [(F treated – F negative control)/(F positive control – F negative control)] × 100%.

A short description of experiment [3]: LTA binding, BODIPY-TR-cadaverine displacement. The following applies: BC displacement, n = 3. The protocol:
as §2

Experiment [4] relates to E. coli ATCC 25922. As to the kind of experiment: Outer membrane permeability, NPN. It counts as cell-based, Escherichia coli. The settings on record: n = 3. The protocol:
The NPN fluorescent probe was used to assess the permeability of the outer membrane.^[ [29] ^] A logarithmic phase culture of E. coli ATCC 25922 bacterial solution was diluted to OD600 = 0.2 in a 5 × 10^−3 M HEPES buffer (pH = 7.4 with 5 × 10^−3 M glucose). Following the addition of NPN (final concentration: 10 × 10^−6 M), the mixture was incubated for 30 min in the dark. Subsequently, the bacterial suspension was mixed with an equal volume of nano‐short peptides solution at different concentrations. Polymyxin B (10 µg mL^−1) was used as a positive control, while an untreated bacterial dilution served as the negative control. Fluorescence intensity was measured (excitation λ = 350 nm, emission λ = 420 nm) using a microplate reader. The percentage of outer membrane permeability was calculated as: Permeability% = [(F treated – F negative control)/(F positive control – F negative control)] × 100%.

Experiment [5] relates to E. coli ATCC 25922. Nature of the experiment: Respiratory chain dehydrogenase activity, RT reduction. It is filed as cell-based, Escherichia coli. The following applies: 16 × 10^−6 M, E. coli ATCC 25922, 1.5 h, 37 °C; n = 3. The method, then: (§3) The inhibitory effects of nano‐short peptides on RCD activity in bacteria were evaluated using an RT reduction assay.^[ [58] ^] Logarithmic growth stage E. coli ATCC 25922 and S. aureus ATCC 29213 bacterial solutions were diluted to OD600 = 0.4 in MHB liquid medium. A mixed solution was prepared by combining RT (1 mg mL^−1), glucose (100 × 10^−3 M), and Tris‐HCl buffer (50 × 10^−3 M, pH 8.6) in equal volumes (1:1:1). In 96‐well microplates, serial dilutions of nano‐short peptides were prepared using the mixed solution, followed by addition of an equal volume of bacterial suspension. Following incubation at 37 °C for 1.5 h, the absorbance at 492 nm was measured using a microplate reader, with untreated bacterial suspensions serving as controls.

The subject of experiment [6] is S. aureus ATCC 29213. The description is as above. It is filed as cell-based, Staphylococcus aureus. The settings on record: 16 × 10^−6 M, S. aureus ATCC 29213, 1.5 h, 37 °C; n = 3. The method, then:
as §3

Experiment [7] relates to S. aureus ATCC 29213. As to the kind of experiment: Intracellular ATP determination. It counts as cell-based, Staphylococcus aureus. The settings on record: 16 × 10^−6 M, S. aureus ATCC 29213, 1 h, 37 °C; n = 3. The protocol: The intracellular ATP levels of E. coli ATCC 25922 and S. aureus ATCC 29213 after nano‐short peptides treatment were detected using an Enhanced ATP Assay Kit.^[ [59] ^] Logarithmic growth stage E. coli ATCC 25922 and S. aureus ATCC 29213 bacterial solutions were diluted to OD600 = 0.4 in MHB liquid medium. Then, the bacterial dilutions were co‐incubated with different concentrations of nano‐short peptides at 37 °C for 1 h. After incubation, the bacterial dilutions were centrifuged (12 000 rpm, 5 min, 4 °C) to pellet the cells. The resulting bacterial pellets were processed according to the steps in the kit. Finally, the chemiluminescence was detected by a microplate reader.

Converted amounts (≈) assume the structure as drawn. Non-standard residues stand in square brackets, D forms with d. Residues, ends and D or L forms follow the SMILES beside them. ξ: configuration not given here. ξAhp(2) = CCCCCC(N)C(=O)O

`CCCCCC(N)C(=O)NC(CCCCC)C(=O)NC(CCCCC)C(=O)NC(CCCCC)C(=O)N[C@H](CCCNC(=N)N)C(=O)N[C@@H](CCCNC(=N)N)C(=O)N[C@@H](CCCNC(=N)N)C(=O)N1CCC[C@H]1C(=O)O` (stereo partly drawn) [Peptide B4] (H-[ξAhp(2)][ξAhp(2)][ξAhp(2)][ξAhp(2)][dR]RRP-OH; N-terminus assumed): the “MIC, E. coli 078” value in the experiment on E. coli 078 is 16 µM (≈ 17.5 µg/mL). Moreover, the “MIC, E. coli 25922” value with E. coli 25922 amounted to 16 µM (≈ 17.5 µg/mL). For the same molecule, in the experiment on E. coli UB1005, the “MIC, E. coli UB1005” value was determined as 8 µM (≈ 8.74 µg/mL). Also, the “MIC, P. aeruginosa 27853” value in the experiment on P. aeruginosa 27853 was found to be 16 µM (≈ 17.5 µg/mL). In the experiment with P. aeruginosa PAO1, the “MIC, P. aeruginosa PAO1” value was found to be 256 µM (≈ 280 µg/mL). Also, in the experiment on S. pullorum C7913, the “MIC, S. pullorum C7913” value was 16 µM (≈ 17.5 µg/mL). Besides, the “MIC, S. typhimurium 14028” value with S. typhimurium 14028 is 128 µM (≈ 140 µg/mL). In addition, the “MIC, S. typhimurium 7731” value with S. typhimurium 7731 was found to be 32 µM (≈ 35 µg/mL). Further, in the experiment on S. aureus 25923, the “MIC, S. aureus 25923” value amounted to 32 µM (≈ 35 µg/mL). Also, in the experiment with S. aureus 29213, the “MIC, S. aureus 29213” value worked out at 16 µM (≈ 17.5 µg/mL). In addition, the “MIC, S. epidermidis 12228” value against S. epidermidis 12228 was 32 µM (≈ 35 µg/mL). Also, the “antimicrobial capacity after serum incubation” value in the experiment with E. coli ATCC 25922 [1] is reported as “retained their original antimicrobial capacity”. Further, the “LPS binding, % of polymyxin B's binding efficiency” value in experiment [2] (8 × 10^−6 M) was 40.51%; in experiment [2] (16 × 10^−6 M) it was 54.24%. The “LTA binding capacity, % of the antibiotic control” value turned out to be 85.77% in [3] (8 × 10^−6 M) and 96.79% in [3] (16 × 10^−6 M). In addition, the “outer membrane disruption compared to polymyxin B” value in the experiment with E. coli ATCC 25922 [4] (8 × 10^−6 M) was determined as 37.37%; with E. coli ATCC 25922 [4] (16 × 10^−6 M), 57.94%. Besides, the “RCD activity reduced to” value in the experiment with E. coli ATCC 25922 [5] was found to be 70.75%; in the experiment on S. aureus ATCC 29213 [6], 34.12%. Moreover, in the experiment with S. aureus ATCC 29213 [7], the “ATP levels decreased to” value turned out to be 71.18%.
`N=C(N)NCCC[C@H](NC(=O)[C@@H](CCCNC(=N)N)NC(=O)[C@H](Cc1cccc2ccccc12)NC(=O)[C@H](Cc1cccc2ccccc12)NC(=O)[C@H](Cc1cccc2ccccc12)NC(=O)[C@@H](N)Cc1cccc2ccccc12)C(=O)N[C@@H](CCCNC(=N)N)C(=O)N1CCC[C@H]1C(=O)O` (stereo in doubt) [Peptide N4]: the “MIC, E. coli 078” value against E. coli 078 is 8 µM (≈ 11 µg/mL). For the same molecule, the “MIC, E. coli 25922” value in the experiment on E. coli 25922 is 8 µM (≈ 11 µg/mL). In the experiment on E. coli UB1005, the “MIC, E. coli UB1005” value worked out at 4 µM (≈ 5.49 µg/mL). For the same molecule, the “MIC, P. aeruginosa 27853” value against P. aeruginosa 27853 worked out at 8 µM (≈ 11 µg/mL). The “MIC, P. aeruginosa PAO1” value with P. aeruginosa PAO1 was determined as 4 µM (≈ 5.49 µg/mL). Also, the “MIC, S. pullorum C7913” value with S. pullorum C7913 was 4 µM (≈ 5.49 µg/mL). For the same molecule, in the experiment with S. typhimurium 14028, the “MIC, S. typhimurium 14028” value is 8 µM (≈ 11 µg/mL). Also, the “MIC, S. typhimurium 7731” value with S. typhimurium 7731 was found to be 8 µM (≈ 11 µg/mL). In addition, the “MIC, S. aureus 25923” value in the experiment on S. aureus 25923 stood at 4 µM (≈ 5.49 µg/mL). For the same molecule, the “MIC, S. aureus 29213” value in the experiment with S. aureus 29213 was 4 µM (≈ 5.49 µg/mL). Also, the “MIC, S. epidermidis 12228” value against S. epidermidis 12228 worked out at 4 µM (≈ 5.49 µg/mL). For the same molecule, in the experiment with E. coli ATCC 25922 [1], the “antimicrobial capacity after serum incubation” value is on record as “retained their original antimicrobial capacity”. Further, the results for the “LPS binding, % of polymyxin B's binding efficiency” value in experiment [2] (8 × 10^−6 M) and in [2] (16 × 10^−6 M) were 60.67% and 99.47%, respectively. Moreover, the “LTA binding capacity, % of the antibiotic control” value in experiment [3] (8 × 10^−6 M) was determined as 65.60%; in [3] (16 × 10^−6 M), 73.08%. Besides, the “outer membrane disruption compared to polymyxin B” value came to 92.06% in the experiment on E. coli ATCC 25922 [4] (8 × 10^−6 M) and 108.41% with E. coli ATCC 25922 [4] (16 × 10^−6 M). The “RCD activity reduced to” value in the experiment with E. coli ATCC 25922 [5] is recorded as 60.10%; in the experiment on S. aureus ATCC 29213 [6], 18.84%. Moreover, the “ATP levels decreased to” value with S. aureus ATCC 29213 [7] is 10.8%.
